Laboratory results as given in patent US7351737B2, “4-[(8-substituted)-6-chromanoyl]-and 4-[8-substituted)-chroman-6-YL-ethynyl]-benzoic and phenylacetic acids, their esters and salts having cytochrome P450RAI inhibitory activity” (Allergan, Inc., priority 2002, dated 2008).
pEC50: −log10 of the molar value.

What was measured:
[1] = test system: skin of fuzzy rats; assay: Topical skin irritation test; type: in vivo, female fuzzy rats (Hsd:FUZZY-fz); conditions: topical in acetone, daily Day 1-14, group average of grade 0-4
From the text: The topical retinoid all-trans-retinoic acid (ATRA) and oral retinoids such as 13-cis RA and etretinate are known to induce substantial skin irritation in humans. This irritation is a direct result of activation of the RAR nuclear receptors. Analysis of retinoid topical irritation is also a highly reproducable method of determining in vivo retinoid potency. The female fuzzy rats provide a convenient animal model of topical irritation, since retinoid-induced skin flaking and abrasion can be readily scored by eye, while their larger size than those of mice also allows multiple sampling of serum for clinical analyses. Topical application of P450RAI inhibitors should cause an increase in the endogenous levels of ATRA that would result in ATRA-induced irritation in skin of hairless mice. In these tests female fuzzy rats ((Hsd:FUZZY-fz), 6-7 weeks old, were obtained from Harlan Sprague-Dawley (Indianapolis, Ind.). The animals were about 8-9 weeks old at the start of the experiments. Food (Purina Rodent Chow 5001) and water purified by reverse osmosis were provided ad libitum. The rats were housed individually throughout the dosing period. Test chemicals were dissolved in acetone (vehicle) for application to the backs of the rats. Two days prior to actual administration of the test compounds, rats were handled daily and dosed with vehicle at a volume of 0.5 ml/kg. Starting on Day 1 thought Day 14 (dosing period), animals were dosed with the vehicle or compound(s) according to their group assignment. The rats in the tests were observed daily and the dorsal skin was graded for the degree of erythema/eschar and overall appearance. The scoring was in accordance with Table 2, below. [table] Daily group average was calculated by dividing the sum of the individual grade by the number of animals in each treatment group. The attached data in Table 3 indicates the retinoid-mimetic effects of some P450RAI inhibitors on the skin of fuzzy rats in the above described tests and in accordance with the above-indicated scoring.

[2] = biological target: T1, RARγ (Homo sapiens, UniProt P13631); assay: chimeric receptor transactivation assay, RARγ; type: cell-based; conditions: for RAR γ (EFFICACY): value in brackets
T1 sequence (P13631 185-419 limits assumed): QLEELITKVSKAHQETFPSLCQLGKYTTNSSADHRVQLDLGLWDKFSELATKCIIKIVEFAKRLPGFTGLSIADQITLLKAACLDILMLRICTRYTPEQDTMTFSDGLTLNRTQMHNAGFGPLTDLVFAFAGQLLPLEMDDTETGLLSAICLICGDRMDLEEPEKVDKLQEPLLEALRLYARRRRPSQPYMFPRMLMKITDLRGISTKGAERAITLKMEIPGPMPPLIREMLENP
From the text: (§1) Assays described below measure the ability of a compound to bind to, and/or activate various retinoid receptor subtypes. When in these assays a compound binds to a given receptor subtype and activates the transcription of a reporter gene through that subtype, then the compound is considered an agonist of that receptor subtype. […] In the below described assays the ability of the compounds to bind to RARα, RARβ, RARγ, RXRα, RXRβ and RXRγ receptors, and the ability or inability of the compounds to activate transcription of a reporter gene through these receptor subtypes can be tested.
(§2) As far as specific assays are concerned, a chimeric receptor transactivation assay which tests for agonist-like activity in the RARα, RARβ, and RARγ, receptor subtypes, and which is based on work published by Feigner P. L. and Holm M. (1989) Focus, 112 is described in detail in U.S. Pat. No. 5,455,265. The specification of U.S. Pat. No. 5,455,265 is hereby expressly incorporated by reference. The numeric results obtained with several preferred compounds of this invention in this assay are shown below in Table 1.
(§3) A holoreceptor transactivation assay and a ligand binding assay which measure the antagonist/agonist like activity of the compounds of the invention, or their ability to bind to the several retinoid receptor subtypes, respectively, are described in published PCT Application No. WO WO93/11755 (particularly on pages 30-33 and 37-41) published on Jun. 24, 1993, the specification of which is also incorporated herein by reference. A detailed experimental procedure for holoreceptor transactivations has been described by Heyman et al. Cell 68, 397-406, (1992); Allegretto et al. J. Biol. Chem. 268, 26625-26633, and Mangelsdorf et al. The Retinoids: Biology, Chemistry and Medicine, pp 319-349, Raven Press Ltd., New York, which are expressly incorporated herein by reference. The results obtained in this assay are expressed in EC50 numbers, as they are also in the chimeric receptor transactivation assay. The results of ligand binding assay are expressed in Kd numbers. (See Cheng et al. Biochemical Pharmacology Vol. 22 pp 3099-3108, expressly incorporated herein by reference.)

[3] = biological target: T2, RARα (Homo sapiens, UniProt P10276); assay: chimeric receptor transactivation assay, RARα; type: cell-based; conditions: for RAR α (EFFICACY): value in brackets
T2 sequence (P10276 183-417 limits assumed): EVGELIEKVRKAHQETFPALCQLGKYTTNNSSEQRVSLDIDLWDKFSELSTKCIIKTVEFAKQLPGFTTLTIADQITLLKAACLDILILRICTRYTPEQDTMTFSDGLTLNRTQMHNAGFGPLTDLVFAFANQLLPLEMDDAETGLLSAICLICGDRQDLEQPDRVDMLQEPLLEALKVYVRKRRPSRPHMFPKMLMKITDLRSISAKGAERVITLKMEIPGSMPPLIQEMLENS
From the text: as §1, §2, §3

[4] = biological target: T3, RARβ (Homo sapiens, UniProt P10826); assay: chimeric receptor transactivation assay, RARβ; type: cell-based; conditions: first item of cell EC50/(EFFICACY)/Kd, read-out: RAR β EC50
T3 sequence (P10826 183-417 limits assumed): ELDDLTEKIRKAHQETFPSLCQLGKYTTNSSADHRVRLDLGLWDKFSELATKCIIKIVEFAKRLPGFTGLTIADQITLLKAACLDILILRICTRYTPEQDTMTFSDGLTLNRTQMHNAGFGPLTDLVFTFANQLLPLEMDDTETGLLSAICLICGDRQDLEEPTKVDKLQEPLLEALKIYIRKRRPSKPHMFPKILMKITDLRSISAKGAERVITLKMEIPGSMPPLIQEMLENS
From the text: as §1
as §2, with “1. […]” for “1.”

SMILES	Irritation Score on day 14 ([1]; 1% compound + 0.1% retinol)	Irritation Score on day 14 ([1]; 1% compound alone)	RAR γ (EFFICACY) [2]	RAR α (EFFICACY) [3]	also measured
C#Cc1cc(C(=O)Oc2ccc(CC(=O)O)c(F)c2)cc2c1OC(C)(C)CC2(C)C [Compound 4, 8-Ethynyl-2,2,4,4-tetramethyl-chroman-6-carboxylic acid-4-carboxymethyl-3-fluoro-phenyl ester]	3.4	1.4	20	20	pEC50 [4]: 6.58
C#Cc1cc(C(=O)Oc2ccc(CC(=O)OCC)cc2)cc2c1OC(C)(C)CC2(C)C [Compound 2, 8-Ethynyl-2,2,4,4-tetramethyl-chroman-6-carboxylic acid 4-ethoxycarbonylmethyl-phenyl ester]	1.6	0			
C#Cc1cc(C(=O)Oc2ccc(CC(=O)OCOC(C)=O)cc2)cc2c1OC(C)(C)CC2(C)C [Compound 3, 8-Ethynyl-2,2,4,4-tetramethyl-chroman-6-carboxylic acid 4-acetoxymethoxycarbonylmethyl-phenyl ester]	2.4	0			
C#Cc1cc(C#Cc2ccc(CC(=O)O)c(F)c2)cc2c1OC(C)(C)CC2(C)C [Compound 41, [4-(8-Ethynyl-2,2,4,4-tetramethyl-chroman-6-ylethynyl)-2-fluoro-phenyl]-acetic acid]			20	10	
C#Cc1cc(C#Cc2ccc(CC(=O)O)cc2)cc2c1OC(C)(C)CC2(C)C [Compound 40, [4-(8-Ethynyl-2,2,4,4-tetramethyl-chroman-6-ylethynyl)-phenyl]-acetic acid]			30	15	pEC50 ([2]; first item of cell EC50/(EFFICACY)/Kd, read-out: RAR γ EC50): 6.83; pEC50 ([3]; first item of cell EC50/(EFFICACY)/Kd, read-out: RAR α EC50): 6.89; pEC50 [4]: 7.00
C#Cc1cc(C(=O)Oc2ccc(CC(=O)O)cc2)cc2c1OC(C)(C)CC2(C)C [Compound 1, 8-Ethynyl-2,2,4,4-tetramethyl-chroman-6-carboxylic acid 4-carboxymethyl-phenyl ester]					Irritation Score on day 14 ([1]; 3% compound + 0.1% retinol): 1; Irritation Score on day 14 ([1]; 3% compound alone): 2.6
C#Cc1cc(C(=O)Oc2ccc(CC(=O)OCOC(C)=O)c(F)c2)cc2c1OC(C)(C)CC2(C)C [Compound 5, 8-Ethynyl-2,2,4,4-tetramethyl-chroman-6-carboxylic acid 4-acetoxymethoxycarbonylmethyl-3-fluoro-phenyl ester]				10	Irritation Score on day 14 ([1]; 0.1% compound + 0.1% retinol): 2.2; Irritation Score on day 14 ([1]; 0.1% compound alone): 0.4
